In paper PMC8284461, “Piperidine-4-Carboxamides Target DNA Gyrase in Mycobacterium abscessus” (Antimicrobial Agents and Chemotherapy, 2021):
Converted amounts (≈) assume the structure as drawn.

Tests used:
Kinetic solubility = format: physicochemical
Method: (§1) Kinetic solubility, parallel artificial membrane permeability assay (PAMPA) permeability, and stability in the mouse liver microsome assay were performed by BioDuro (Shanghai, China) according to standard protocols.

[1] = tested on: M. abscessus subsp. abscessus ATCC 19977 844-TMF^r-4 (GyrB M474I); assay: MIC, resistant mutant; format: cell-based, Mycobacterium abscessus; details: Mycobacteroides abscessus, ATCC19977
[2] = Parallel artificial membrane permeability assay (PAMPA); format: in vitro ADME
Method: as §1

Plasma stability [3] = format: in vitro ADME, New Zealand white rabbits; details: rabbit plasma, 37°C, 1 μg/ml
Method: (§2) The plasma stability assays were carried out using plasma from female CD-1 mice, New Zealand white rabbits, rhesus monkeys, and humans containing K2EDTA anticoagulant (Bioreclamation). Stability samples consisted of 5 μl of stock compound solution in 50:50 ACN/water and 95 μl of plasma to a final concentration of 1 μg/ml. The samples were incubated at 37°C with shaking; 10 μl of plasma was removed at each time point and combined with 100 μl of ACN/methanol 50:50 protein precipitation solvent containing internal standard (10 ng/ml verapamil). Chromatography for metabolite identification was performed the same as specified for pharmacokinetic sample analysis. Full scan total ion chromatograms (TIC) of plasma extracts were acquired using a Q Exactive high-resolution mass spectrometer (QE-HRMS) at 70,000 mass resolution. Thermo Fisher Compound Discoverer software was used to assist in identifying the 844-TFM metabolites from the QE-HRMS TIC mass spectrum. Figure S2 in the supplemental material illustrates the extracted ion chromatograms (XIC) of 844-TFM and the metabolites using 5 ppm mass accuracy before and after 12 h of incubation in mouse plasma.

Plasma stability [4] = format: in vitro ADME, CD-1 mice; details: mouse plasma, 37°C, 1 μg/ml
Method: as §2

[5] = tested on: M. abscessus subsp. abscessus Bamboo 844^r-3 (GyrB S473W); assay: MIC, resistant mutant; format: cell-based, Mycobacterium abscessus; details: Mycobacteroides abscessus
[6] = tested on: M. abscessus subsp. abscessus Bamboo 844^r-2 (GyrA D91N); assay: MIC, resistant mutant; format: cell-based, Mycobacterium abscessus; details: Mycobacteroides abscessus
[7] = tested on: M. abscessus subsp. abscessus ATCC 19977 MXF^r-1 (GyrA D96Y); assay: MIC, resistant mutant; format: cell-based, Mycobacterium abscessus; details: Mycobacteroides abscessus, ATCC19977
Plasma stability [8] = format: in vitro ADME, rhesus monkeys; details: monkey plasma, 37°C, 1 μg/ml
Method: as §2

[9] = Mouse liver microsome stability; format: in vitro ADME
Method: as §1

[10] = tested on: M. abscessus subsp. abscessus ATCC 19977 MXF^r-3 (GyrA D96G); assay: MIC, resistant mutant; format: cell-based, Mycobacterium abscessus; details: Mycobacteroides abscessus, ATCC19977
[11] = tested on: M. abscessus subsp. abscessus ATCC 19977 MXF^r-2 (GyrA D96N); assay: MIC, resistant mutant; format: cell-based, Mycobacterium abscessus; details: Mycobacteroides abscessus, ATCC19977
[12] = tested on: M. abscessus subsp. massiliense M111; assay: MIC, broth microdilution; format: cell-based, Mycobacterium abscessus; details: Mycobacteroides abscessus, 72 h, 90% growth inhibition, 3 days
Method: (§3) MIC was determined using the broth microdilution method in 96-well plates as described previously ([47]). Briefly, a 10-point 2-fold serial dilution of compounds was performed in 96-well plates (Costar 3370; Corning, USA) starting at twice the desired highest concentration. […] One hundred microliters of the bacterial suspension was seeded onto the 96-well plates containing 100 μl of the serially diluted compounds to give a final volume of 200 μl in each well with the final OD600 of 0.005. The plates were sealed with parafilm, placed onto wet paper towels in a lock-lock box and incubated for 3 days at 37°C with orbital shaking at 90 rpm. […] Absorbance values at day 3 were subtracted from the day 0 readout. Percent growth inhibition was calculated by dividing the absolute absorbance value of treated cells with untreated control and multiplying by 100. CLR was included in all MIC experiments as a positive control to monitor assay reproducibility. MIC was defined as 90% of growth inhibition relative to untreated controls.

[13] = tested on: M. abscessus subsp. abscessus K21; assay: MIC, broth microdilution; format: cell-based, Mycobacterium abscessus; details: Mycobacteroides abscessus, 72 h, 90% growth inhibition, 3 days
Method: as §3

[14] = tested on: M. abscessus subsp. abscessus M404; assay: MIC, broth microdilution; format: cell-based, Mycobacterium abscessus; details: Mycobacteroides abscessus, 72 h, 90% growth inhibition, 3 days
Method: as §3

[15] = tested on: M. abscessus subsp. abscessus Bamboo; assay: MIC, broth microdilution; format: cell-based, Mycobacterium abscessus; details: Mycobacteroides abscessus, 72 h; abscessus Bamboo wild type; 90% growth inhibition, 3 days
Method: as §3

[16] = tested on: M. abscessus subsp. abscessus M421; assay: MIC, broth microdilution; format: cell-based, Mycobacterium abscessus; details: Mycobacteroides abscessus, 72 h, 90% growth inhibition, 3 days
Method: as §3

[17] = tested on: M. abscessus subsp. bolletii M232; assay: MIC, broth microdilution; format: cell-based, Mycobacterium abscessus; details: Mycobacteroides abscessus, 72 h, 90% growth inhibition, 3 days
Method: as §3

[18] = tested on: M. abscessus subsp. abscessus M337; assay: MIC, broth microdilution; format: cell-based, Mycobacterium abscessus; details: Mycobacteroides abscessus, 72 h, 90% growth inhibition, 3 days
Method: as §3

[19] = tested on: M. abscessus subsp. abscessus M9; assay: MIC, broth microdilution; format: cell-based, Mycobacterium abscessus; details: Mycobacteroides abscessus, 72 h, 90% growth inhibition, 3 days
Method: as §3

[20] = tested on: M. abscessus subsp. abscessus ATCC 19977; assay: MIC, broth microdilution; format: cell-based, Mycobacterium abscessus; details: Mycobacteroides abscessus, ATCC19977, 72 h; abscessus ATCC 19977 wild type; 90% growth inhibition, 3 days
Method: as §3

[21] = tested on: M. abscessus subsp. massiliense CCUG 48898T; assay: MIC, broth microdilution; format: cell-based, Mycobacterium abscessus; details: Mycobacteroides abscessus, 72 h, 90% growth inhibition, 3 days
Method: as §3

[22] = tested on: M. abscessus subsp. abscessus M199; assay: MIC, broth microdilution; format: cell-based, Mycobacterium abscessus; details: Mycobacteroides abscessus, 72 h, 90% growth inhibition, 3 days
Method: as §3

[23] = tested on: M. abscessus subsp. bolletii M506; assay: MIC, broth microdilution; format: cell-based, Mycobacterium abscessus; details: Mycobacteroides abscessus, 72 h, 90% growth inhibition, 3 days
Method: as §3

[24] = tested on: M. abscessus subsp. bolletii CCUG 50184T; assay: MIC, broth microdilution; format: cell-based, Mycobacterium abscessus; details: Mycobacteroides abscessus, 72 h, 90% growth inhibition, 3 days
Method: as §3

Plasma stability [25] = format: in vitro ADME, humans; details: human plasma, 37°C, 1 μg/ml
Method: as §2

For `COc1ccc2nccc(NC(=O)C3CCN(CCc4ccc(C(F)(F)F)cc4)CC3)c2n1` [844-TFM], the solubility (Kinetic solubility; pH 7.4) was 390 µM (≈ 179 µg/mL), the solubility (Kinetic solubility; simulated gastric fluid, pH 2) was 446 µM (≈ 205 µg/mL) and the MIC [1] was 6 µM (≈ 2.75 µg/mL). For the same compound, the Papp ([2]; PAMPA, pH 7.4, read-out: PAMPA Mean Pe) was 2 ×10⁻⁶ cm/s, the “PAMPA logPe” value ([2]; pH 7.4) was −5.7 and the “PAMPA logPe” value ([2]; −5.0 cm/s considered border between high and low permeability) was −5.7 cm/s. For the same compound, the “remaining after 24 h” value (Plasma stability [3]) was “approximately 80%”, the stability in plasma (Plasma stability [4]) was “rapidly degraded” and the MIC [5] was 5 µM (≈ 2.29 µg/mL). The MIC [6] was > 100 µM, the MIC [7] was 6 µM (≈ 2.75 µg/mL) and the “remaining after 24 h” value (Plasma stability [8]) was “approximately 80%”. For the same compound, the CLint scaled ([9]; liver microsomes, mouse hepatic microsomes, scaled) was 1050 mL/min/kg, the microsomal CLint ([9]; liver microsomes, mouse hepatic microsomes, read-out: In vitro CLint) was 267 µL/min/mg and the t1/2 ([9]; mouse hepatic microsomes, in vitro) was 5.2 min. For the same compound, the CLhepatic ([9]; mouse hepatic microsomes, scaled) was 82.9 mL/min/kg, the half-life ([9]; mouse, liver microsomes, mouse hepatic microsomes, in vitro) was 5 min and the predicted extraction ratio ([9]; mouse, clearance vs hepatic blood flow of 90 ml/min/kg) was ~1. It also gave an MIC [10] of 1 µM (≈ 0.458 µg/mL), an MIC [11] of 2 µM (≈ 0.917 µg/mL) and an MIC [12] of 6.3 µM (≈ 2.89 µg/mL). For the same compound, the MIC [13] was 3.5 µM (≈ 1.6 µg/mL), the MIC [14] was 1.6 µM (≈ 0.734 µg/mL) and the MIC [15] was 1.5 µM (≈ 0.688 µg/mL). It also gave an MIC [16] of 1.6 µM (≈ 0.734 µg/mL), an MIC [17] of 1.6 µM (≈ 0.734 µg/mL) and an MIC [18] of 3.1 µM (≈ 1.42 µg/mL). For the same compound, the MIC [19] was 3.1 µM (≈ 1.42 µg/mL), the MIC [20] was 1.5 µM (≈ 0.688 µg/mL) and the MIC [21] was 2 µM (≈ 0.917 µg/mL). For the same compound, the MIC [22] was 6.3 µM (≈ 2.89 µg/mL), the MIC [23] was 3.1 µM (≈ 1.42 µg/mL) and the MIC [24] was 2 µM (≈ 0.917 µg/mL). The “remaining after 24 h” value (Plasma stability [25]) was “approximately 80%”.
